Measurements taken from ChEMBL document CHEMBL1122447, “2-Acetylpyridine thiosemicarbazones. 5. 1-[1-(2-Pyridyl)ethyl]-3-thiosemicarbazides as potential antimalarial agents” (1983).

Assays:
Plasmodium berghei [1] = assay: Antimalarial activity against Plasmodium berghei infected mice (Mus musculus) at 320 mg/kg; toxic in 1 of 5; assay type: functional, organism-based; design: dose 320 mg/kg
Plasmodium berghei [2] = assay: Increased mean survival time in drug-sensitive Plasmodium berghei infected mice (Mus musculus) at 40 mg/kg; cured 1 of 5; assay type: functional, organism-based; design: dose 40 mg/kg
Plasmodium berghei [3] = assay: Antimalarial activity against Plasmodium berghei infected mice (Mus musculus) at 640 mg/kg; toxic in 5 of 5; assay type: functional, organism-based; design: dose 640 mg/kg
Plasmodium berghei [4] = assay: Increased mean survival time in drug-sensitive Plasmodium berghei infected mice (Mus musculus) at 160 mg/kg; cured 5 of 5; assay type: functional
Plasmodium berghei [5] = assay: Increased mean survival time in drug-sensitive Plasmodium berghei infected mice (Mus musculus) at 20 mg/kg dose; assay type: functional
Plasmodium berghei [6] = assay: Increased mean survival time in drug-sensitive Plasmodium berghei infected mice (Mus musculus) at 80 mg/kg; cures 3 of 5; assay type: functional, organism-based; design: dose 80 mg/kg
Plasmodium berghei [7] = assay: Increased mean survival time in drug-sensitive Plasmodium berghei infected mice (Mus musculus) at 320 mg/kg; cured 2 of 5; assay type: functional, organism-based; design: dose 320 mg/kg

SMILES: CC(N/N=C(\S)N1CCN(c2ccccn2)CC1)c1ccccn1 (configuration not stated)
- Survival time (Plasmodium berghei [1]): Toxic in 1 of 5 mice
- Survival time (Plasmodium berghei [2]): Cured 1 of 5 mice
- Survival time (Plasmodium berghei [3]): Toxic in 5 of 5 mice
- Survival time (Plasmodium berghei [4]): 5 days
- Survival time (Plasmodium berghei [5]): 0.4 days
- Survival time (Plasmodium berghei [6]): Cured 3 of 5 mice
- Survival time (Plasmodium berghei [7]): Cured 2 of 5 mice
